11 compounds from US20160287589A1, “SUBSTITUTED-IMIDAZOPYRIDAZINES” (BAYER PHARMA AKTIENGESELLSCHAFT, priority 2013, published 2016) can be followed below.

Assay [1] has as its target T1, MKNK1 (Homo sapiens, UniProt Q9BUB5, T385D).
T1 construct: GST (N); purchased Carna Biosciences 02-145; host or cells: insect cells (baculovirus expression system)
The experiment in a line: MKNK1 kinase assay (MKNK1 TR-FRET assay). In kind it is biochemical. To be noted: 10 μM ATP, 15 min preincubation.

For assay [2], the target named is T1, MKNK1. The experiment in a line: MKNK1 kinase high ATP assay (TR-FRET-based). In kind it is biochemical. To be noted: 2 mM ATP, 15 min preincubation. An outline of the steps: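 GST-tagged full-length human MKNK1 (aa 1-424, T344D) from insect cells, preincubated with compound 15 min at 22 °C. Reaction 30 min at 22 °C with 2 mM ATP and 0.06 μM biotinylated peptide in HEPES pH 7.5, Mg2+, DTT. Phosphopeptide detected by TR-FRET (665/622 ratio) with anti-pS6 (pSer236) antibody; normalised to no-inhibitor and no-enzyme controls.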
(In general: TR-FRET usually uses a lanthanide donor and a delayed reading to cut background.)

T1 sequence (Q9BUB5 1-424 isoform Q9BUB5-2 T344D): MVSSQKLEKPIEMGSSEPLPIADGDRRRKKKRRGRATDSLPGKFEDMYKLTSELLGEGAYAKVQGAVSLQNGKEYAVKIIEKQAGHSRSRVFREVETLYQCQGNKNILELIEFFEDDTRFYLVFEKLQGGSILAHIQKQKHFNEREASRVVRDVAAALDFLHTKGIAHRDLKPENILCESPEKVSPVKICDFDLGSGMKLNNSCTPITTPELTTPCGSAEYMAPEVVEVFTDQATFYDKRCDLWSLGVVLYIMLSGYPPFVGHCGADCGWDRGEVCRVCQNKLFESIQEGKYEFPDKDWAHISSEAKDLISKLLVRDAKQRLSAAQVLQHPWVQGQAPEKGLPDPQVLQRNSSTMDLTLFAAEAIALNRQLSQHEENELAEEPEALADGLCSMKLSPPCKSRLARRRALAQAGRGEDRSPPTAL

Take `C[C@@H]1COCCN1c1cccc2oc(-c3cnc4ccc(OC[C@H]5CCC(=O)N5)nn34)cc12` [II-49, (5R)-5-{[(3-{4-[(3R)-3-methylmorpholin-4-yl]-1-benzofuran-2-yl}imidazo[1,2-b]pyridazin-6-yl)oxy]methyl}pyrrolidin-2-one]: the IC50 is 5.2 nM in assay [1] (Table 1b) and 11.9 nM in assay [2] (Table 2b).

For `O=C1CC[C@H](COc2ccc3ncc(-c4cc5c(N6CCN(c7ccccc7)CC6)cccc5o4)n3n2)N1` [II-14, (5R)-5-[({3-[4-(4-Phenylpiperazin-1-yl)-1-benzofuran-2-yl]imidazo[1,2-b]-pyridazin-6-yl}oxy)methyl]pyrrolidin-2-one], the IC50 in assay [1] (Table 1b) was 7 nM; in assay [2] (Table 2b), 27 nM.

On to `COCCN(C)c1nccc2oc(-c3cnc4ccc(OC[C@H]5CCC(=O)N5)nn34)cc12` [III-81, (5R)-5-{[(3-{4-[(2-Methoxyethyl)(methyl)amino]furo[3,2-c]pyridin-2-yl}imidazo[1,2-b]pyridazin-6-yl)oxy]methyl}pyrrolidin-2-one], for which the results for the IC50 in assay [1] (Table 1c) and in assay [2] (Table 2c) were 0.3 nM and 0.5 nM, respectively.

Turning to `O=C1CCC(CCOc2ccc3ncc(-c4cc5ccccc5o4)n3n2)N1` (stereo not shown) [Example I-26, 5-(2-{[3-(1-Benzofuran-2-yl)imidazo[1,2-b]pyridazin-6-yl]oxy}ethyl)pyrrolidin-2-one], the IC50 in assay [1] (Table 1a) is 9 nM; in assay [2] (Table 2a), 23 nM.

For `CN1CCN(c2nccc3oc(-c4cnc5ccc(OC[C@H]6CCC(=O)N6)nn45)cc23)CC1` [III-61, (5R)-5-[({3-[4-(4-Methylpiperazin-1-yl)furo[3,2-c]pyridin-2-yl]imidazo[1,2-b]pyridazin-6-yl}oxy)methyl]pyrrolidin-2-one], the figures for the IC50 in assay [1] (Table 1c) and in assay [2] (Table 2c) were 1 nM and 1.2 nM, respectively.

In the case of `C[C@@H]1CNCCN1c1cccc2oc(-c3cnc4ccc(OCCCS(C)(=O)=O)nn34)cc12` [II-45, 3-{4-[(2R)-2-methylpiperazin-1-yl]-1-benzofuran-2-yl}-6-[3-(methylsulfonyl)pro-poxy]imidazo[1,2-b]pyri-dazine], the 50% inhibitory concentration (IC50) in assay [1] (Table 1b) came to 5.7 nM; in assay [2] (Table 2b), 5.9 nM.

For `C[C@H]1CN(c2nccc3oc(-c4cnc5ccc(OCC(F)(F)F)nn45)cc23)CCN1` [III-145, 3-{4-[(3S)-3-methylpiperazin-1-yl]furo[3,2-c]pyridin-2-yl}-6-(2,2,2-trifluoroethox-y)imidazo[1,2-b]pyridazine], the half-inhibitory concentration (IC50) came out at 9.7 nM in assay [1] (Table 1c) and 24 nM in assay [2] (Table 2c).

As for `CS(=O)(=O)CCCOc1ccc2ncc(-c3cc4c(N5CCNCC5)cccc4o3)n2n1` [II-20, 6-[3-(Methylsulfonyl)propoxy]-3-[4-(piperazin-1-yl)-1-benzofuran-2-yl]imidazo-[1,2-b]pyridazine], the IC50 came to 0.5 nM in assay [1] (Table 1b) and 0.8 nM in assay [2] (Table 2b).

As for `CC1(C)CN(c2nccc3oc(-c4cnc5ccc(OCC(F)(F)F)nn45)cc23)CCN1` [III-126, 3-[4-(3,3-dimethylpiperazin-1-yl)furo[3,2-c]pyridin-2-yl]-6-(2,2,2-trifluoroethoxy)imidazo [1,2-b]pyridazine], the IC50 in assay [1] (Table 1c) was determined as 5.3 nM; in assay [2] (Table 2c) it was 2.6 nM.

In the case of `CC(C)(C)OC(=O)N[C@H]1C[C@H](Oc2ccc3ncc(-c4cc5c(N6CCOCC6)cccc5o4)n3n2)C1` [II-3, tert-Butyl [trans-3-({3-[4-(morpholin-4-yl)-1-benzofuran-2-yl]imidazo[1,2-b]-pyridazin-6-yl}oxy)cyclobutyl]carbamate], the IC50 is 110 nM in assay [1] (Table 1b) and 196 nM in assay [2] (Table 2b).

On to `CC(Oc1ccc2ncc(-c3cc4ccccc4o3)n2n1)C(N)=O` (stereo not shown) [Example I-25, 2-{[3-(1-Benzofuran-2-yl)imidazo[1,2-b]pyridazin-6-yl]oxy}propanamide], for which the IC50 in assay [1] (Table 1a) turned out to be 4.7 nM; in assay [2] (Table 2a) it was 20.8 nM.

The IC50 is the concentration that gives 50% inhibition. A lower IC50 goes with inhibition by little substance.
